Like-named read-outs stand apart in the source and are kept apart here.
Legend:
[1] = test system: PC3mm2 (androgen receptor insensitive prostate cancer); experiment: Anti-proliferative activity against PC3mm2 cells; type: cell-based
Experimental: (§1) Once synthesized, the library of coumermycin A1 analogs containing the olefinic and saturated linkers, were evaluated for anti-proliferative activity against SKBr3 (estrogen receptor negative, Her2 over-expressing breast cancer cells), MCF-7 (estrogen receptor positive breast cancer cells), A549 (human lung adenocarcinoma epithelial), HT29 (Human colon adenocarcinoma grade II), and PC3mm2 (androgen receptor insensitive prostate cancer) cell lines. The activities produced provide insight into the optimal distance between binding sites and provide rationale for subsequent analog design. […] As shown, X is at the 6 position and Y is at the 8 position.

[2] = test system: MCF-7 (estrogen receptor positive breast cancer cells); experiment: Anti-proliferative activity against MCF-7 cells; type: cell-based; conditions: mean ± SD
Experimental: as §1, with “lines.” for “lines. The activities produced provide insight into the optimal distance between binding sites and provide rationale for subsequent analog design.”

[3] = test system: HSP90-dependent client proteins (Her-2, Raf, Akt); experiment: Western blot analyses of HSP90 client protein degradation in MCF-7 breast cancer cells; type: cell-based; conditions: MCF-7 lysates, 24 hour treatment, 5x and 1/2 of antiproliferative IC50
Experimental: Since actin is not dependent on HSP90 for its maturation, actin levels should remain constant after treatment with an HSP90 inhibitor and is therefore used as a control. […] L represents a concentration ½ of the anti-proliferative IC50 value while H represents a concentration 5 times greater than the anti-proliferative IC50 value. GDA (500 nM) represents a positive control, while DMSO (0), vehicle, serves as the negative control. […]

[4] = test system: prostate cancer (PC3mm2, A549 and HT29) cell lines; experiment: Anti-proliferative activity against prostate cancer cell lines (collective statements); type: cell-based
Experimental: as §1
(§2) The first series of analogs included compounds with simplified moieties in lieu of the noviose sugar, while subsequent analogs included varying coumarin, noviose, and tether modifications. Many of these coumermycin A1 analogs manifested potent anti-proliferative activity that correlated directly to HSP90 inhibition as evidenced by the degradation of HSP90-dependent client proteins. Replacement of the laborious, stereochemical complex, and expensive noviose sugar with commercially available piperidine moieties produced compounds that manifested ˜100-fold increase in antiproliferative activities.

[5] = test system: prostate cancer (PC3mm2) cell lines; experiment: as above; type: cell-based; conditions: low nanomolar, prostate cancers; read-out: anti-proliferative activities against prostate cancers
Experimental: as §1, §2

[6] = test system: A549 (human lung adenocarcinoma epithelial); experiment: Anti-proliferative activity against A549 cells; type: cell-based
Experimental: as §1

[7] = test system: HT29 (Human colon adenocarcinoma grade II); experiment: Anti-proliferative activity against HT29 cells; type: cell-based
Experimental: as §1

[8] = test system: SKBr3 (estrogen receptor negative, Her2 over-expressing breast cancer cells); experiment: Anti-proliferative activity against SKBr3 cells; type: cell-based; conditions: mean ± SD
Experimental: as §1, with “lines.” for “lines. The activities produced provide insight into the optimal distance between binding sites and provide rationale for subsequent analog design.”

[9] = test system: breast cancer (SKBr3 and MCF7) cell lines; experiment: Anti-proliferative activity against breast cancer cell lines (collective statements); type: cell-based; conditions: versus Compound 68
Experimental: as §1, §2

[10] = Solubility in DMSO; type: physicochemical
[11] = test system: SKBr3, MCF-7, A549, HT29 and PC3mm2 cell lines; experiment: Anti-proliferative activity, cell lines not specified; type: cell-based; conditions: versus Compounds 65-70
Experimental: as §1

[12] = Table 4, read-out: Anti-Proliferation Activities of Biaryl Dimers, PC3mm2
[13] = Table 4, read-out: Anti-Proliferation Activities of Biaryl Dimers, MCF-7
[14] = Table 4, read-out: Anti-Proliferation Activities of Biaryl Dimers, A549
[15] = Table 4, read-out: Anti-Proliferation Activities of Biaryl Dimers, HT29
[16] = Table 4, read-out: Anti-Proliferation Activities of Biaryl Dimers, SKBr3
[17] = Table 5, read-out: Anti-Proliferation Activities Non-Noviosylated Biaryl Dimers, MCF-7
[18] = Table 5, read-out: Anti-Proliferation Activities Non-Noviosylated Biaryl Dimers, SKBr3

Structure (SMILES) | IC50 [1, 12] [µM] | IC50 [2, 13] [nM] | IC50 [6, 14] [µM] | IC50 [7, 15] [µM] | IC50 [8, 16] [nM] | IC50 [2, 17] [nM] | solubility in DMSO [10] | IC50 [8, 18] [nM] | further results
Cc1c(OC2CCN(C)CC2)ccc2cc(NC(=O)CCC/C=C/CCCC(=O)Nc3cc4ccc(OC5CCN(C)CC5)c(C)c4oc3=O)c(=O)oc12 [Compound 32] | – | – | – | – | – | – | – | – | IC50 ([1]; Table 2, read-out: Anti-Proliferation Activities of non-Noviosylated Olefin Dimers, PC3mm2): 0.44 µM; IC50 ([2]; Table 2, read-out: Anti-Proliferation Activities of non-Noviosylated Olefin Dimers, MCF7): 630 ± 30 nM; degradation of Raf and Akt, Western blot [3]: caused degradation of Raf and Akt; effect on Her2, Western blot [3]: no effect on Her2; fold more active than any other dimer against prostate cancers ([4]; versus other non-noviosylated dimers): 10-20 fold; IC50 [5]: 200 to 400 nM; IC50 ([6]; Table 2, read-out: Anti-Proliferation Activities of non-Noviosylated Olefin Dimers, A549): 0.22 µM; IC50 ([7]; Table 2, read-out: Anti-Proliferation Activities of non-Noviosylated Olefin Dimers, HT29): 0.24 µM; IC50 ([8]; Table 2, read-out: Anti-Proliferation Activities of non-Noviosylated Olefin Dimers, SKBr3): 890 ± 10 nM
COc1ccc(C(=O)Nc2cc3ccc(OC4OC(C)(C)C(OC)C(O)C4O)c(C)c3oc2=O)cc1-c1cc(C(=O)Nc2cc3ccc(OC4OC(C)(C)C(OC)C(O)C4O)c(C)c3oc2=O)ccc1OC (stereo not shown) [Compound 66] | 36.7 | 760 ± 140 | 36.8 | 36.5 | 1160 ± 210 | – | – | – | fold more active than Compound 68 against breast cancer cell lines [9]: 2 fold

More lines, main results first:

IC50 [1, 12] [µM] | IC50 [2, 13] [nM] | IC50 [6, 14] [µM] | IC50 [7, 15] [µM] | IC50 [8, 16] [nM] | IC50 [2, 17] [nM] | solubility in DMSO [10] | IC50 [8, 18] [nM] | Structure (SMILES) | further results
0.27 | 880 ± 200 | 0.21 | 0.27 | 910 ± 120 | – | – | – | COc1ccc(C(=O)Nc2cc3ccc(OC4OC(C)(C)C(OC)C(O)C4O)c(OC)c3oc2=O)cc1-c1cc(C(=O)Nc2cc3ccc(OC4OC(C)(C)C(OC)C(O)C4O)c(OC)c3oc2=O)ccc1OC (stereo not shown) [Compound 70] | fold more active against prostate cancer cell lines than 8-Me analog Compound 66 ([4]; versus Compound 66): 100-150 fold
– | – | – | – | – | 14200 ± 2300 | inherent insolubility in DMSO | 4980 ± 700 | COc1ccc(C(=O)Nc2cc3ccc(OC4CCN(C)CC4)c(C)c3oc2=O)cc1-c1cc(C(=O)Nc2cc3ccc(OC4CCN(C)CC4)c(C)c3oc2=O)ccc1OC [Compound 71] | –
– | – | – | – | – | 11700 ± 1600 | inherent insolubility in DMSO | 9500 ± 1200 | COc1ccc(C(=O)Nc2cc3ccc(OCCCN(C)C)c(C)c3oc2=O)cc1-c1cc(C(=O)Nc2cc3ccc(OCCCN(C)C)c(C)c3oc2=O)ccc1OC [Compound 72] | IC50 ([1]; Table 5, read-out: Anti-Proliferation Activities Non-Noviosylated Biaryl Dimers, PC3mm2): 52.3 µM; IC50 ([6]; Table 5, read-out: Anti-Proliferation Activities Non-Noviosylated Biaryl Dimers, A549): 93.5 µM; IC50 ([7]; Table 5, read-out: Anti-Proliferation Activities Non-Noviosylated Biaryl Dimers, HT29): 62.7 µM; fold less active than the corresponding noviosylated coumarin-containing analogs (Compounds 65-70) [11]: ~10 fold

From patent publication US9056104B2, “Dynamic inhibitors of heat shock protein 90” (THE UNIVERSITY OF KANSAS, priority 2011, dated 2015)
